# Assay results taken from patent US9663496B2, “AMPK-activating heterocyclic compounds and methods for using the same” (Rigel Pharmaceuticals, Inc., priority 2010, dated 2017).
# pEC50: −log10 of the molar value.
# Target: AMPK
# Assay: AMPK activation, enzyme-linked immunosorbent assay
# Format: biochemical
# Details: EC50 for AMPK activation, ELISA
# How it was run: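 Read-out: immunodetected kinase activation after compound exposure, run with commercial kit reagents.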
row,pEC50,SMILES
1,> 6.30,"O=C(NC1CCN(Cc2ccc(F)cc2)CC1)c1ccc(C(=O)N2CCC(C(=O)c3ccc(F)cc3)CC2)cn1 [Compound 181, 5-(4-(4-fluorobenzoyl)piperidine-1-carbonyl)-N-(1-(4-fluorobenzyl)piperidin-4-yl)picolinamide]"
2,> 6.30,"O=C(NC1CCN(Cc2ccc(F)cc2)CC1)c1ccc(C(=O)N2CC[C@H](Oc3ccc(F)cc3)C2)cn1 [Compound 182, (S)-N-(1-(4-fluorobenzyl)piperidin-4-yl)-5-(3-(4-fluorophenoxy)pyrrolidine-1-carbonyl)picolinamide]"
3,> 6.30,"COc1ccc(OC2CCN(C(=O)c3ccc(C(=O)NC4CCN(Cc5ccc(F)cc5)CC4)nc3)CC2)cc1 [Compound 183, N-(1-(4-fluorobenzyl)piperidin-4-yl)-5-(4-(4-methoxyphenoxy)piperidine-1-carbonyl)picolinamide]"
4,> 6.30,"COc1ccc(O[C@H]2CC[C@@H](NC(=O)c3ccc(C(=O)N4CCC(C(=O)c5ccc(OC)cc5)CC4)cn3)CC2)cc1 [Compound 184, 5-(4-(4-methoxybenzoyl)piperidine-1-carbonyl)-N-((cis)-4-(4-methoxyphenoxy)cyclohexyl)picolinamide]"
5,> 6.30,"COc1ccc(O[C@H]2CC[C@@H](NC(=O)c3ccc(C(=O)N4CCC(Oc5ccc(C(F)(F)F)cc5)CC4)cn3)CC2)cc1 [Compound 185, N-((cis)-4-(4-methoxyphenoxy)cyclohexyl)-5-(4-(4-(trifluoromethyl)phenoxy)piperidine-1-carbonyl)picolinamide]"
6,> 6.30,"COc1ccc(OC2CCN(C(=O)c3ccc(C(=O)N[C@H]4CC[C@@H](Oc5ccc(OC)cc5)CC4)nc3)CC2)cc1 [Compound 186, N-((cis)-4-(4-methoxyphenoxy)cyclohexyl)-5-(4-(4-methoxyphenoxy)piperidine-1-carbonyl)picolinamide]"
7,5.30 to 6.00,"O=C(c1ccc(N2CCC(Oc3ccc(C(F)(F)F)cc3)CC2)nc1)N1CCN(Cc2ccc(F)cc2)CC1 [Compound 187, (4-(4-fluorobenzyl)piperazin-1-yl)(6-(4-(4-(trifluoromethyl)phenoxy)piperidin-1-yl)pyridin-3-yl)methanone]"
8,6.00 to 6.30,"N#Cc1ccc(OC2CCN(c3ccc(C(=O)N4CCN(Cc5ccc(F)cc5)CC4)cn3)CC2)cc1 [Compound 188, 4-(1-(5-(4-(4-fluorobenzyl)piperazine-1-carbonyl)pyridin-2-yl)piperidin-4-yloxy)benzonitrile]"
9,5.30 to 6.00,"COc1ccc(C(=O)C2CCN(c3ccc(C(=O)N4CCN(Cc5ccc(F)cc5)CC4)cn3)CC2)cc1 [Compound 189, (4-(4-fluorobenzyl)piperazin-1-yl)(6-(4-(4-methoxybenzoyl)piperidin-1-yl)pyridin-3-yl)methanone]"
10,> 6.30,"N#Cc1ccc(O[C@H]2CC[C@@H](NC(=O)c3ccc(C(=O)N4CCC(Oc5ccc(C(F)(F)F)cc5)CC4)cn3)CC2)cc1 [Compound 190, N-((cis)-4-(4-cyanophenoxy)cyclohexyl)-5-(4-(4-(trifluoromethyl)phenoxy)piperidine-1-carbonyl)picolinamide]"
11,> 6.30,"COc1ccc(OC2CCN(C(=O)c3ccc(C(=O)N[C@H]4CC[C@@H](Oc5ccc(C(F)(F)F)cc5)CC4)nc3)CC2)cc1 [Compound 191, 5-(4-(4-methoxyphenoxy)piperidine-1-carbonyl)-N-((cis)-4-(4-(trifluoromethyl)phenoxy)cyclohexyl) picolinamide]"
12,> 6.30,"COc1ccc(C(=O)C2CCN(C(=O)c3ccc(C(=O)N[C@H]4CC[C@@H](Oc5ccc(C(F)(F)F)cc5)CC4)nc3)CC2)cc1 [Compound 192, 5-(4-(4-methoxybenzoyl)piperidine-1-carbonyl)-N-((cis)-4-(4-(trifluoromethyl)phenoxy)cyclohexyl) picolinamide]"
13,> 6.30,"N#Cc1ccc(OC2CCN(C(=O)c3ccc(C(=O)N[C@H]4CC[C@@H](Oc5ccc(C(F)(F)F)cc5)CC4)nc3)CC2)cc1 [Compound 193, 5-(4-(4-cyanophenoxy)piperidine-1-carbonyl)-N-((cis)-4-(4-(trifluoromethyl)phenoxy)cyclohexyl) picolinamide]"
14,> 6.30,"COc1ccc(C(=O)C2CCN(C(=O)c3ccc(C(=O)NC4CCN(Cc5ccc(N6CCCC6)cc5)CC4)nc3)CC2)cc1 [Compound 194, 5-(4-(4-methoxybenzoyl)piperidine-1-carbonyl)-N-(1-(4-(pyrrolidin-1-yl)benzyl)piperidin-4-yl)picolinamide]"
15,> 6.30,"COc1ccc(OC2CCN(C(=O)c3ccc(C(=O)NC4CCN(Cc5ccc(N6CCCC6)cc5)CC4)nc3)CC2)cc1 [Compound 195, 5-(4-(4-methoxyphenoxy)piperidine-1-carbonyl)-N-(1-(4-(pyrrolidin-1-yl)benzyl)piperidin-4-yl)picolinamide]"
16,> 6.30,"O=C(NC1CCN(Cc2ccc(N3CCCC3)cc2)CC1)c1ccc(C(=O)N2CCC(Oc3ccc(F)cc3)CC2)cn1 [Compound 196, 5-(4-(4-fluorophenoxy)piperidine-1-carbonyl)-N-(1-(4-(pyrrolidin-1-yl)benzyl)piperidin-4-yl)picolinamide]"

row,pEC50,SMILES
1,> 6.30,"N#Cc1ccc(OC2CCN(C(=O)c3ccc(C(=O)NC4CCN(Cc5ccc(N6CCCC6)cc5)CC4)nc3)CC2)cc1 [Compound 197, 5-(4-(4-cyanophenoxy)piperidine-1-carbonyl)-N-(1-(4-(pyrrolidin-1-yl)benzyl)piperidin-4-yl)picolinamide]"
2,> 6.30,"COc1ccc(C(=O)C2CCN(C(=O)c3ccc(C(=O)N[C@H]4CC[C@@H](Oc5ccc(C#N)c(F)c5)CC4)nc3)CC2)cc1 [Compound 198, N-((cis)-4-(4-cyano-3-fluorophenoxy)cyclohexyl)-5-(4-(4-methoxybenzoyl)piperidine-1-carbonyl)picolinamide]"
3,> 6.30,"N#Cc1ccc(OC2CCN(C(=O)c3ccc(C(=O)NC4CCN(Cc5ccc(F)cc5)CC4)nc3)CC2)cc1 [Compound 200, 5-(4-(4-cyanophenoxy)piperidine-1-carbonyl)-N-(1-(4-fluorobenzyl)piperidin-4-yl)picolinamide]"
4,6.00 to 6.30,"NC(=O)c1ccc(CN2CCC(NC(=O)c3ccc(C(=O)N4CCN(Cc5ccc(F)cc5)CC4)cn3)CC2)cc1 [Compound 201, N-(1-(4-carbamoylbenzyl)piperidin-4-yl)-5-(4-(4-fluorobenzyl)piperazine-1-carbonyl)picolinamide]"
5,> 6.30,"COc1ccc(CN2CCC(NC(=O)c3ccc(C(=O)N4CCC(Oc5ccc(S(C)(=O)=O)cc5)CC4)cn3)CC2)cc1 [Compound 202, N-(1-(4-methoxybenzyl)piperidin-4-yl)-5-(4-(4-(methylsulfonyl)phenoxy)piperidine-1-carbonyl)picolinamide]"
6,> 6.30,"CS(=O)(=O)c1ccc(OC2CCN(C(=O)c3ccc(C(=O)NC4CCN(Cc5cc(F)cc(F)c5)CC4)nc3)CC2)cc1 [Compound 203, N-(1-(3,5-difluorobenzyl)piperidin-4-yl)-5-(4-(4-(methylsulfonyl)phenoxy)piperidine-1-carbonyl)picolinamide]"
7,> 6.30,"COc1ccc(C(=O)C2CCN(C(=O)c3cnc(C(=O)Nc4ccc(Oc5ccc(F)cc5)nc4)cn3)CC2)cc1 [Compound 204, N-(6-(4-fluorophenoxy)pyridin-3-yl)-5-(4-(4-methoxybenzoyl)piperidine-1-carbonyl)pyrazine-2-carboxamide]"
8,> 6.30,"O=C(Nc1ccc(Oc2ccc(F)cc2)nc1)c1cnc(C(=O)N2CCC(Oc3ccc(C(F)(F)F)cc3)CC2)cn1 [Compound 205, N-(6-(4-fluorophenoxy)pyridin-3-yl)-5-(4-(4-(trifluoromethyl)phenoxy)piperidine-1-carbonyl)pyrazine-2-carboxamide]"
9,> 6.30,"O=C(Nc1ccc(Oc2ccc(F)cc2)nc1)c1cnc(C(=O)N2CCC(C(=O)c3ccc(F)cc3F)CC2)cn1 [Compound 206, 5-(4-(2,4-difluorobenzoyl)piperidine-1-carbonyl)-N-(6-(4-fluorophenoxy)pyridin-3-yl)pyrazine-2-carboxamide]"
10,> 6.30,"CS(=O)(=O)c1ccc(OC2CCN(C(=O)c3cnc(C(=O)Nc4ccc(Oc5ccc(F)cc5)nc4)cn3)CC2)cc1 [Compound 207, N-(6-(4-fluorophenoxy)pyridin-3-yl)-5-(4-(4-(methylsulfonyl)phenoxy)piperidine-1-carbonyl)pyrazine-2-carboxamide]"
11,> 6.30,"CS(=O)(=O)c1ccc(OC2CCN(C(=O)c3ccc(C(=O)NC4CCN(Cc5ccc(N6CCCC6)cc5)CC4)nc3)CC2)cc1 [Compound 208, 5-(4-(4-(methylsulfonyl)phenoxy)piperidine-1-carbonyl)-N-(1-(4-(pyrrolidin-1-yl)benzyl)piperidin-4-yl)picolinamide]"
12,> 6.30,"N#Cc1ccc(CN2CCC(NC(=O)c3ccc(C(=O)N4CC(Oc5ccc(C#N)cc5)C4)cn3)CC2)cc1 [Compound 209, N-(1-(4-cyanobenzyl)piperidin-4-yl)-5-(3-(4-cyanophenoxy)azetidine-1-carbonyl)picolinamide]"
13,< 5.00,"N#Cc1ccc(OC2CN(C(=O)c3ccc(C(=O)Nc4ccc(Oc5ccc(F)cc5)nc4)nc3)C2)cc1 [Compound 210, 5-(3-(4-cyanophenoxy)azetidine-1-carbonyl)-N-(6-(4-fluorophenoxy)pyridin-3-yl)picolinamide]"
14,> 6.30,"COc1ccc(C(=O)C2CCN(C(=O)c3cnc(C(=O)NC4CCN(Cc5ccc(C#N)cc5)CC4)cn3)CC2)cc1 [Compound 211, N-(1-(4-cyanobenzyl)piperidin-4-yl)-5-(4-(4-methoxybenzoyl)piperidine-1-carbonyl)pyrazine-2-carboxamide]"
15,> 6.30,"N#Cc1ccc(CN2CCC(NC(=O)c3cnc(C(=O)N4CCC(Oc5ccc(C(F)(F)F)cc5)CC4)cn3)CC2)cc1 [Compound 212, N-(1-(4-cyanobenzyl)piperidin-4-yl)-5-(4-(4-(trifluoromethyl)phenoxy)piperidine-1-carbonyl)pyrazine-2-carboxamide]"
16,> 6.30,"CS(=O)(=O)c1ccc(CN2CCC(NC(=O)c3ccc(C(=O)N4CCC(C(=O)c5ccc(F)cc5F)CC4)nc3)CC2)cc1 [Compound 213, 6-(4-(2,4-difluorobenzoyl)piperidine-1-carbonyl)-N-(1-(4-(methylsulfonyl)benzyl)piperidin-4-yl)nicotinamide]"
